In US8444970B2, “Compositions and methods for treating ocular diseases and conditions” (Lpath, Inc., priority 2006, dated 2013):
“And” between values parts separate entries of the source, which are not always exact repeats. Identical values can stand only once.

Columns and labels:
[1] = tested on: peripheral lymphocyte counts; settings: single oral dose; cited from earlier work
[2] = tested on: endothelial cell (EC) infiltration into Matrigel plugs; assay: In vivo Matrigel plug assay, S1P-supplemented plugs, EC infiltration; parameters: species or system mouse; settings: plugs containing S1P
Description: Based on in vivo studies showing that S1P increased endothelial capillary growth into subcutaneously implanted Matrigel plugs, we speculated that SPHINGOMAB could reduce de novo BV formation in vivo. To investigate this, we employed the in vivo Matrigel Plug assay for neovascularization. In one set of experiments, Matrigel was supplemented with either […], 0.5 μg/mL bFGF or 1 μg/mL VEGF and then injected […]. into mice (n=4). After 10 days, the mice were heparinized and injected with the fluorescent lectin, Isolectin B4-FITC, which binds to adhesion molecules expressed by vascular EC that form the growing BVs. The plugs were then excised, frozen in OCT, sectioned and viewed for FITC-stained BVs.
Sections of the plugs were then stained with hemotoxyln & eosin for evaluation of EC infiltration (FIG. 6B). The infiltration of ECs is a critical step in neo-vascularization. […] Cell infiltration is presumed to be ECs although we recognize that other cell types such as immune cells may also be stained.

[3] = tested on: human retinal pigmented epithelial cells; assay: alpha-SMA expression in retinal pigmented epithelial cells; format: cell-based
Source text: (§1) In many of these disorders, circulating growth factors and chemokines promote the transformation of normal ocular cells into fibrocontractile, scar tissue-producing cells that have been termed “myofibroblasts”. Normally, myofibroblasts are responsible for tissue repair as part of the wound healing response following injury. However altered number and function of myofibroblasts are implicated in diseases characterized by pathological scar tissue formation in the liver, skin, lung, kidney, heart and eyes. In the eye, transformation of retinal pigmented epithelial (RPE) cells to a myofibroblast phenotype is linked to formation of fibro-contractile membranes which cause retinal detachment and subsequent vision impairment. In addition, myofibroblast transformation of ocular fibroblasts can result in abnormal scar tissue production after eye injury leading to subsequent vision loss. Although many of the circulating protein factors in the eye that promote myofibroblast formation have been identified, nothing is known regarding the role of lysolipids such as S1P in this process. Therefore, we examined the effects of S1P on myofibroblast transformation of several human ocular cell lines.
(§2) In these experiments, the ability of S1P to promote α-SMA expression differed in a concentration dependent manner between the retinal pigmented epithelial cells and conjunctiva fibroblasts. […]

[4] = tested on: human conjunctiva fibroblasts; assay: alpha-SMA expression in conjunctiva fibroblasts; format: cell-based; settings: 10 uM S1P (only at this concentration)
Source text: as §1, §2

[5] = tested on: COLO205 colorectal tumor xenograft; assay: SC COLO205 colorectal tumor xenograft in nude NCr mice; format: in vivo, mouse; settings: LT1009 50 mg/kg ip q3d; Avastin 40 mg/kg iv q7d; Paclitaxel 15 mg/kg iv q1dx5
Description: Nude mice were implanted sc near the right flank with one fragment per mouse of COLO 205 tumor from an in vivo passage. All treatments were initiated the day when 60 mice in each experiment established tumors ranging in size from approximately 100 to 200 mm3. […] Avastin was administered iv at a dosage of 40 mg/kg/dose on a q7d schedule, injected in a volume of 0.1 mL/20 g body weight. Paclitaxel (positive control), was administered iv at a dosage of 15 mg/kg/dose on a q1d×5 schedule, injected in a volume of 0.1 mL/10 g body weight.
(§3) Animals were observed daily for mortality. Tumor dimensions and body weights were collected twice weekly starting with the first day of treatment and including the day of study termination. When the median tumor in the vehicle-treated control group in each study reached approximately 4,000 mg, the study was terminated. Tumors from each animal were harvested, wet weights were recorded, tumors were processed for determination of microvascular densities (MVD) by CD-31 staining. Tumor weights (mg) were calculated using the equation for an ellipsoid sphere (l×w^2)/2=mm^3, where l and w refer to the larger and smaller dimensions collected at each measurement and assuming unit density (1 mm3=1 mg).

[6] = tested on: HT29 colon tumor xenografts; assay: SC HT29 colorectal tumor xenograft in nude NCr mice; format: in vivo, mouse; settings: LT1009 50 mg/kg ip q2d; Avastin 20 mg/kg iv q4d; 5-FU 75 mg/kg ip q4d
Description: Nude mice were implanted sc near the right flank with one fragment per mouse of HT29 tumor from an in vivo passage. All treatments were initiated the day when 60 mice in each experiment established tumors ranging in size from approximately 100 to 200 mm^3. There were ten mice per treatment group. […] 75 mg/kg 5-FU and 20 mg/kg Avastin were administered ip and iv at a dosage of 75 mg/kg/dose and 20 mg/kg/dose, respectively, q4d, injected in a volume of 0.1 mL/10 g body weight.
as §3, with “recorded, and” for “recorded,”, “MVD” for “microvascular densities (MVD)”, “mm^3=1” for “mm3=1”

[7] = tested on: DU145 prostate tumor xenograft; assay: SC DU145 prostate tumor xenograft in nude NCr mice; format: in vivo, mouse; settings: LT1009 50 mg/kg ip q2d; Avastin 20 mg/kg q4d; Paclitaxel 7.5 mg/kg q1dx5
Description: Nude mice were implanted sc near the right flank with one fragment per mouse of DU145 tumor from an in vivo passage. All treatments were initiated the day when 60 mice in each experiment established tumors ranging in size from approximately 100 to 200 mm^3. […] Paclitaxel and Avastin were administered iv and ip at a dosage of 7.5 mg/kg/dose and 20 mg/kg/dose, q1d×5 and q4d, respectively, injected in a volume of 0.1 mL/10 g body weight.
During the course of the study tumor growth was monitored by measuring the sc tumors on three axes and calculating the volume. At the end of the study final tumor weights and volumes were determined and then the mice were sacrificed, the tumors harvested. Microvascular densities (MVD) of the tumors were then determined by CD-31 staining.

For `CCCCCCCCc1ccc(CCC(N)(CO)CO)cc1` [FTY720], the “reduction of peripheral lymphocyte counts” value [1] is listed as 30-70%.
In the case of `CCCCCCCCCCCCC/C=C/[C@@H](O)[C@@H](N)COP(=O)(O)O` [S1P, sphingosine-1-phosphate], the “increase of EC infiltration vs Matrigel only plugs” value [2] is reported as 3 fold, the alpha-SMA expression ([3]; 0.001 uM S1P) is reported as “significant increase” and the alpha-SMA expression ([3]; 10 uM S1P) is reported as “decreased to basal levels”. For the same compound, the alpha-SMA expression [4] was “significant increase”.
With “Avastin: anti-angiogenic drug, bevacizumab (Avastin, Genentech)” the “% Reduction compared to Vehicle-Treated Mice” value (“% Reduction” for short) [5] was 35%, the “% Reduction” value [6] was 30% and the “% Reduction” value [7] was 80% and 79%.
